Reference: US20030198674A1, “Controlled release pharmaceutical dosage forms of a cholesteryl ester transfer protein inhibitor” (priority 2002, published 2003)
In brackets after ≈: the same amount, converted by molar mass. Read-outs that look alike come from different tables or passages of the source.

Experiments:
[1] = Single-dose plasma Drug A concentration vs. time curve fitted to 2-compartment PK model; format: in vivo, Human
Method: Pharmacokinetic (PK) constants were derived by fitting this curve to a 2-compartment PK model, assuming a small intestinal transit time of 4 hr, and a gastric emptying time of 15 min.

[2] = Plasma half-life of Drug A; format: in vivo
[3] = Aqueous solubility of Drug A; format: physicochemical
[4] = 120 mg Drug A, fitted 2-compartment model

Compound: CCOC(=O)N1c2ccc(C(F)(F)F)cc2[C@@H](N(Cc2cc(C(F)(F)F)cc(C(F)(F)F)c2)C(=O)OC)C[C@H]1CC [Drug A, [2R,4S] 4-[(3,5-bis-trifluoromethyl-benzyl)-methoxycarbonyl-amino]-2-ethyl-6-trifluoromethyl-3,4-dihydro-2H-quinoline-1-carboxylic acid ethyl ester]
- Absorption Ka [1, 4]: 2.27 h⁻¹
- K12 [1, 4]: 0.017 h⁻¹
- K21 [1, 4]: 0.002 h⁻¹
- Kel (Elimination Rate Constant) ([1]; calculated from Cl/Vd): 0.042 h⁻¹
- clearance ([1]; human, plasma, oral, 120 mg, read-out: Clearance (Cl) (converted)): 218 mL/min
- Vd ([1]; human, plasma, oral, 120 mg, read-out: Volume of distribution (Vd)): 174 L
- half-life ([2]; read-out: additional long terminal elimination half-life): 100 to 200 h
- half-life ([2]; read-out: effective plasma terminal half-life (t1/2)): 30 to 70 h
- aqueous solubility [3]: about 0.04 microgm/ml
- solubility ([3]; water (aqueous), accurate measurements, crystalline): ~0.01 µg/mL (≈ 0.0167 µM)
- solubility ([3]; water, read-out: solubility in water): < 1 µg/mL
